The values below come from patent US7547729B2, “1,3-diphenylprop-2-en-1-one derivative compounds, preparation method thereof and uses of same” (Genfit, priority 2004, dated 2009).

One assay concerns LDL. The assay is described as follows: Protection against LDL oxidation by copper (conjugated diene formation). Type of assay: biochemical. The conditions noted are these: 10^−4M. The procedure:
Unless otherwise indicated, the reagents were from Sigma (St Quentin, France). LDL were prepared according to the method described by Lebeau et al. (Lebeau, Furman et al. 2000).
The solutions of test compounds were prepared at 10^−2 M concentration in bicarbonate buffer (pH 9) and diluted in PBS to obtain final concentrations ranging from 0.1 to 100 μM
Prior to oxidation, EDTA was removed from the LDL preparation by dialysis. Oxidation then took place at 30° C. by adding 100 μl of 16.6 μM CuSO4 solution to 160 μL of LDL (125 μg protein/ml) and 20 μl of a test compound solution. The formation of dienes, the species under observation, was followed by measuring optical density at 232 nm in the samples treated with the compounds in the presence or absence of copper. Optical density at 232 nm was measured every 10 minutes for 8 hours in a thermostated spectrophotometer (Tecan Ultra 380). The analyses were performed in triplicate. The compounds were considered to have antioxidant activity when they induced a longer lag phase and reduced the rate of oxidation and the amount of dienes formed in comparison with the control sample.

The target in assay [1] is T1, PPARα (Homo sapiens, UniProt Q07869).
T1 construct: expressed in transfected cells; host or cells: COS-7 cells
T1 sequence (Q07869 239-466 limits assumed): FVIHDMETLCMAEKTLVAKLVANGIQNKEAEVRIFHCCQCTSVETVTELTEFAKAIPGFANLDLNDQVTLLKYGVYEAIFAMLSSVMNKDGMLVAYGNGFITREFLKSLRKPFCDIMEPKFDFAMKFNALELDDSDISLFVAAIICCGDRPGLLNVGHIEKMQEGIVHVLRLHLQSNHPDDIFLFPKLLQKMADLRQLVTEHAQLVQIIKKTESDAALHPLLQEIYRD
The assay is described as follows: PPARα/Gal4 transactivation system in RK13 cells. Type of assay: cell-based. The conditions noted are these: 24 hours. The procedure:
(§1) RK13 cells were incubated with the compound 2 at concentrations comprised between 0.01 and 10 μM for 24 hours. The results are expressed as the induction factor (ratio of luminescent signal obtained with the compound and that observed without the compound) after the different treatments.
PPAR activation was tested in vitro in RK13 epitheloid or COS-7 cell lines by measuring the transcriptional activity of chimeras composed of the DNA binding domain of the yeast gal4 transcription factor and the ligand binding domain of the different PPARs. These latter results were then confirmed in cell lines according to the following protocols: […]
RK13 cells were seeded in 24-well culture dishes at 5×10^4 cells/well, COS-7 cells in 96-well culture dishes at 5×10^4 cells/well and transfected for 2 hours with the reporter plasmid pG5TkpGL3 (50 ng/well), the expression vectors pGal4-φ, pGal4-mPPARα, pGal4-hPPARα, pGal4-hPPARγ, pGal4-hPPARδ (100 ng/well) and the transfection efficiency control vector pRL-CMV (1 ng/well) according to the previously described protocol (Raspe, Madsen et al. 1999), then incubated for 36 hours with the test compounds. […] The protein content of the cell extracts was then measured with the Bio-Rad Protein Assay (Bio-Rad, Munich, Germany) as directed by the supplier.

The target of assay [2] is T2, PPARγ (Homo sapiens, UniProt P37231).
T2 construct: expressed in transfected cells; host or cells: COS-7 cells
T2 sequence (P37231 238-503 limits assumed): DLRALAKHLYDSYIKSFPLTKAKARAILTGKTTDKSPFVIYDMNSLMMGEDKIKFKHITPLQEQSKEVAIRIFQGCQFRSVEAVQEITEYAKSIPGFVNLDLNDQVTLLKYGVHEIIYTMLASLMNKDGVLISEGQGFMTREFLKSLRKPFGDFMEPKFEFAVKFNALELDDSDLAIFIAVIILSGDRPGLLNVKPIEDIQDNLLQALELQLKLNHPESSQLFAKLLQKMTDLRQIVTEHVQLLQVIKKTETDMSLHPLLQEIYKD
The assay is described as follows: PPARγ/Gal4 transactivation system in RK13 cells. As to conditions: 24 hours. The class given is cell-based. The procedure: as §1
(§2) PPAR activation was tested in vitro in RK13 epitheloid or COS-7 cell lines by measuring the transcriptional activity of chimeras composed of the DNA binding domain of the yeast gal4 transcription factor and the ligand binding domain of the different PPARs. These latter results were then confirmed in cell lines according to the following protocols:
(§3) RK13 cells were from ECACC (Porton Down, UK), COS-7 cells were from the ATCC (American Type Culture Collection) and were grown in DMEM medium supplemented with 10% (VN) fetal calf serum, 100 U/ml penicillin (Gibco, Paisley, UK) and 2 mM L-glutamine (Gibco, Paisley, UK). The culture medium was changed every two days. Cells were kept at 37° C. in a humidified 95% air/5% CO2 atmosphere.
(§4) The plasmids pG5TkpGL3, pRL-CMV, pGal4-hPPARα, pGal4-hPPARγ, pGal4-hPPARδ and pGal4-φ have been described by Raspe, Madsen et al. (1999). The pGal4-mPPARα, pGal4-hPPARγ and pGal4-hPPARδ constructs were obtained by cloning into the pGal4-φ vector of PCR-amplified DNA fragments corresponding to the DEF domains of the human PPARα, PPARγ and PPARδ nuclear receptors.
(§5) RK13 cells were seeded in 24-well culture dishes at 5×10^4 cells/well, COS-7 cells in 96-well culture dishes at 5×10^4 cells/well and transfected for 2 hours with the reporter plasmid pG5TkpGL3 (50 ng/well), the expression vectors pGal4-φ, pGal4-mPPARα, pGal4-hPPARα, pGal4-hPPARγ, pGal4-hPPARδ (100 ng/well) and the transfection efficiency control vector pRL-CMV (1 ng/well) according to the previously described protocol (Raspe, Madsen et al. 1999), then incubated for 36 hours with the test compounds. At the end of the experiment, the cells were lysed (Gibco, Paisley, UK) and luciferase activity was determined with a Dual-Luciferase™ Reporter Assay System kit (Promega, Madison, Wis., USA) for RK13 cells and Steady Glow Luciferase (Promega) for COS-7 cells according to the supplier's instructions as previously described. The protein content of the cell extracts was then measured with the Bio-Rad Protein Assay (Bio-Rad, Munich, Germany) as directed by the supplier.

For assay [3], the system named is Apo E2/E2 transgenic mice. The assay is described as follows: Effects on triglyceride and cholesterol metabolism in Apo E2/E2 transgenic mice. Type of assay: in vivo. As to conditions: gavage, 50 mg/kg/day, seven days. The procedure: FIGS. 19a, 19b, 19c, 19d, 20a, 20b, 20c and 20d illustrate the effects of treatment with compound 2 (Cpd2), compound 13 (Cpd13), compound 33 (Cpd33) and compound 39 (Cpd39) on triglyceride and cholesterol metabolism in Apo E2/E2 transgenic mice treated by gavage with the compound at a dose of 50 mg/kg/day, for seven days.
Apo E2/E2 transgenic mice were housed in a 12-hour light/dark cycle at a constant temperature of 20±3° C. After a 1-week acclimatization period, the mice were weighed and divided into groups of 6 animals selected such that the distribution of body weight was uniform. The test compounds were suspended in carboxymethylcellulose and administered by gastric lavage at the indicated doses, once a day for 7 days. Animals had access to food and water ad libitum. At the end of the experiments, animals were weighed and sacrificed under anesthesia. Blood was collected on EDTA. Plasma was isolated by centrifugation at 3000 rpm for 20 minutes. Liver samples were removed and stored frozen in liquid nitrogen for later analysis.
Lipid concentrations in plasma (total cholesterol and free cholesterol, triglycerides and phospholipids) were determined by a colorimetric assay (Boehringer, Mannheim, Germany) according to the supplier's instructions. Plasma concentrations of apolipoproteins AI, AII and CIII were determined as previously described (Raspe et al. 1999, Asset G et al., Lipids, 1999).

In assay [4] the target is T1, PPARα. The assay is described as follows: PPARα/Gal4 transactivation system in COS-7 cells. Type of assay: cell-based. As to conditions: 24 hours. The procedure:
(§6) COS-7 cells were incubated with different concentrations of the inventive compounds for 24 hours. The results are expressed as the induction factor (ratio of luminescent signal obtained with the compound and that observed without the compound) after the different treatments.
as §2, §3, §4, §5

Assay [5] has as its target T2, PPARγ. The assay is described as follows: PPARγ/Gal4 transactivation system in COS-7 cells. Type of assay: cell-based. As to conditions: 24 hours. The procedure: as §6, §2, §3, §4, §5
Assay [6] relates to monocyte-derived dendritic cells. The assay is described as follows: Differentiation of monocytes to dendritic cells (flow cytometry of surface markers). Type of assay: cell-based. The procedure: Compound 39 (10^−6 M) was added at D0 of differentiation of monocytes to dendritic cells. After six days of differentiation (in the presence of cytokines GM-CSF and IL-4), the dendritic cells were analyzed by flow cytometry.
For these experiments, blood samples from volunteer donors (Etablissement Francais du Sang) and monocytes were isolated by a standard protocol using anti-CD14-conjugated magnetic beads (Miltenyi Biotec). Monocytes isolated in this manner were then induced to differentiate by incubation for 6 days in culture medium containing a mixture of cytokines GM-CSF and IL-4 (20 ng/ml for each cytokine).
Compound 39 was added at t=0 and acquisition of the dendritic cell phenotype was followed by expression of the cell surface marker CD1a.

Where [7] appears, read: compound added at t=0, six days differentiation, data not shown.

Consider `CCCCCSCCOc1ccc(C(=O)/C=C/c2cc(C)c(OC(C)(C)C(=O)O)c(C)c2)cc1` [compound 2, 1-(4-(Pentylthioethyloxy)phenyl)-3-(4-carboxydimethylmethyloxy-3,5-dimethylphenyl)prop-2-en-1-one], for which, in the assay on LDL (FIG. 1a, copper alone 120 minutes), the “lag phase of conjugated diene formation” value was 314 min. In the assay on LDL (FIG. 1b, copper alone 1.8), the “rate of diene formation” value is 0.1 nmol/min/mg of LDL. In addition, the “maximum amount of conjugated dienes formed” value in the assay with LDL (FIG. 1c, copper alone 372) worked out at 35 nmol/mg. Further, the “decrease in the amount of conjugated dienes formed” value in the assay with LDL (FIG. 1c, versus copper alone) is on record as 90%. In addition, the Induction factor at PPARα [1] (1 μM) amounted to 8.83; on PPARα [1] (10 μM), 18.49; at PPARγ [2] (0.01 μM) it was 1.31; on PPARγ [2] (0.03 μM), 1.18; at PPARγ [2] (0.1 μM) it was 1.73; at PPARγ [2] (0.3 μM), 4.58. In addition, the Induction factor was 9.50 at PPARγ [2] (1 μM), 16.64 at PPARγ [2] (3 μM) and 31.00 at PPARγ [2] (10 μM). For the same molecule, in assay [3], the plasma cholesterol entry is “decrease”. Moreover, the plasma triglycerides result in assay [3] is given as “decrease”.

`CCCCCCSc1c(C)cc(C(=O)/C=C/c2cc(C)c(OC(C)(C)C(=O)O)c(C)c2)cc1C` [compound 39, 1-(4-Hexylthio-3,5-dimethylphenyl)-3-(4-carboxydimethylmethyloxy-3,5-dimethylphenyl)prop-2-en-1-one] registered a lag phase in the assay on LDL (FIG. 8a, absence of compounds 67.3 minutes) of 133 min. In addition, the “rate of LDL oxidation” value with LDL (FIG. 8b, absence of compounds 2.5) came to 1.2 nmol/min/mg. The “total amount of dienes formed” value with LDL (FIG. 8c, absence of compound 432.3) turned out to be 371.2 nmol/mg. Besides, the Induction factor on PPARα [4] (0.001 μM) was 1.08; on PPARα [4] (0.003 μM), 1.17; at PPARα [4] (0.01 μM) it was 3.19; on PPARα [4] (0.03 μM) it was 7.69; at PPARα [4] (0.1 μM) it was 9.68; at PPARα [4] (0.3 μM), 10.16. The Induction factor on PPARα [4] (1 μM) came to 10.42; on PPARα [4] (3 μM) it was 9.96; at PPARγ [5] (0.001 μM), 0.95; on PPARγ [5] (0.003 μM), 0.96; at PPARγ [5] (0.01 μM), 1.56; at PPARγ [5] (0.03 μM), 3.06. In addition, the Induction factor at PPARγ [5] (0.1 μM) is listed as 4.08; at PPARγ [5] (0.3 μM), 4.86; on PPARγ [5] (1 μM) it was 4.78; on PPARγ [5] (3 μM), 4.72. The plasma cholesterol result in assay [3] was “decrease”. Also, the plasma triglycerides entry in assay [3] is “decrease”. The “expression of CD1a at the cell surface” value in assay [6] (10^−6 M added at D0, six days with GM-CSF and IL-4) is “almost totally inhibiting”. Also, the CD86 expression entry in assay [6] (setting [7]) is listed as “slightly increased”. In assay [6] (setting [7]), the “expression of the costimulation molecule CD80” value is recorded as “reduced, to a lesser extent”.
